From patent US5830888A, “Macrocyclic retroviral protease inhibitors” (Monsanto Company, priority 1995, dated 1998)

Target: T1, HIV protease (Human immunodeficiency virus type 1 group M subtype B, UniProt P04585)
T1 construct: HIV protease is diluted in the assay buffer to a final enzyme concentration of 12.3 nanomolar, based on a molecular weight of 10,780
Assay: HIV protease enzyme assay (fluorescence, substrate 2-aminobenzoyl-lle-Nle-Phe(p-NO2)-Gin-ArgNH2)
Assay type: biochemical
Settings: HIV protease 12.3 nanomolar, substrate 80 μM, pH 6.4; for IC50: ambient temperature, read-out: IC50 (inhibiting concentration 50%)
Protocol: The compounds of the present invention are effective HIV protease inhibitors. […] The calculated IC50 (inhibiting concentration 50%, i.e., the concentration at which the inhibitor compound reduces enzyme activity by 50%) values are shown in Table 1. The enzyme method is described below. The substrate is 2-aminobenzoyl-lle-Nle-Phe(p-NO2)-Gin-ArgNH2. The positive control is MVT-101 [Miller, M. et al, Science, 246, 1149 (1989)]. The assay conditions are as follows:
Assay buffer: 20 mM sodium phosphate, pH 6.4
The above described substrate is dissolved in DMSO, then diluted 10 fold in assay buffer. Final substrate concentration in the assay is 80 μM. HIV protease is diluted in the assay buffer to a final enzyme concentration of 12.3 nanomolar, based on a molecular weight of 10,780.
The final concentration of DMSO is 14% and the final concentration of glycerol is 18%. The test compound is dissolved in DMSO and diluted in DMSO to 10×the test concentration; 10 μL of the enzyme preparation is added, the materials mixed and then the mixture is incubated at ambient temperature for 15 minutes. The enzyme reaction is initiated by the addition of 40 μL of substrate. The increase in fluorescence is monitored at 4 time points (0, 8, 16 and 24 minutes) at ambient temperature. Each assay is carried out in duplicate wells.

| Compound | IC50 | inhibition at 10 µM |
| --- | --- | --- |
| CC(C)CCN1C[C@@H](O)[C@H](Cc2ccccc2)NC(=O)[C@@H](NC(=O)OCc2ccccc2)CSCCCCNC1=O [Compound 1] | 340 nM |  |
| CC(C)CCN1C[C@@H](O)[C@H](Cc2ccccc2)NC(=O)[C@@H](NC(=O)OCc2ccccc2)CSCCCCCNC1=O [Compound 2] | 570 nM |  |
| CC(C)CCN1C[C@@H](O)[C@H](Cc2ccccc2)NC(=O)[C@@H](NC(=O)OCc2ccccc2)CSCCCCCCNC1=O [Compound 3] | 1730 nM |  |
| CC(=O)N[C@H]1CSCCCCCNC(=O)N(CCC(C)C)C[C@@H](O)[C@H](Cc2ccccc2)NC1=O [Compound 4] | 1600 nM |  |
| CC(C)CCN1C[C@@H](O)[C@H](Cc2ccccc2)NC(=O)CCSCCCCCNC1=O [Compound 5] |  | 20% |
| CC(C)CCN1C[C@@H](O)[C@H](Cc2ccccc2)NC(=O)[C@@H](NC(=O)OCc2ccccc2)CSCCCCC(C)(C)NC1=O [Compound 6] | 220 nM |  |
| CC(C)CCN1C[C@@H](O)[C@H](Cc2ccccc2)NC(=O)[C@@H](NC(=O)OCc2ccccc2)C(C)(C)SCCCCCNC1=O [Compound 7] | 1260 nM |  |
| CC(C)CCN1C[C@@H](O)[C@H](Cc2ccccc2)NC(=O)[C@@H](NC(=O)OCc2ccccc2)CSCCCC(C)(C)NC1=O [Compound 8] | 140 nM |  |

The remaining lines, values ahead:

| IC50 | inhibition at 10 µM | Compound |
| --- | --- | --- |
| 510 nM |  | CC(C)CCN1C[C@@H](O)[C@H](Cc2ccccc2)NC(=O)[C@@H](NC(=O)c2ccc3ccccc3n2)CSCCCCCNC1=O [Compound 9] |
|  | 47% | CC(C)CCN1C[C@@H](O)[C@H](Cc2ccccc2)NC(=O)[C@@H](NC(=O)OCc2ccccc2)CSCCCCCCC1=O [Compound 10] |
|  | 21% | CC(C)CCN1C[C@@H](O)[C@H](Cc2ccccc2)NC(=O)CCS(=O)(=O)CCCCCNC1=O [Compound 17, 1-Thia-5,9,11-Triazacyclohexadecane, 7-Hydroxy-9-(3-Methylbutyl)-4,10-Dioxo-6-(Phenylmethyl)-, 1,1-Dioxide, Cis-] |
|  | 16% | CC(C)CCN1C[C@@H](O)[C@H](Cc2ccccc2)NC(=O)[C@@H](NC(=O)OCc2ccccc2)CC(=O)NCCCNC1=O [Compound 20, Carbamic Acid, [5-Hydroxy-3-(3-Methylbutyl)-2,8,11-Trioxo-5-(Phenylmethyl)-1,3,7,12-Tetraazacyclopentadec-9-YL]-, Phenylmethylester, (98-Trans)-] |
